Measurements: the supplement of paper PMC13380429

Experiments:
Conditions in all cases: 72 h
Caco-2 [1] = test: cell viability relative to DMSO; higher = less toxic
Calu-3 [2] = test: as above
HepG2 [3] = test: as above
U2OS [4] = test: as above
Caco-2 [5] = test: relative viability EC50 (midpoint between 100% and the lowest measured viability); higher = less toxic
Calu-3 [6] = test: as above
HepG2 [7] = test: as above
U2OS [8] = test: as above
Caco-2 [9] = test: drug sensitivity score (DSS) for viability; higher = more toxic; extreme values may be limits of the assay
Calu-3 [10] = test: as above
HepG2 [11] = test: as above
U2OS [12] = test: as above
Vero E6 [13] = test: cell viability relative to DMSO; higher = less toxic
Vero E6 [14] = test: drug sensitivity score (DSS) for viability; higher = more toxic; extreme values may be limits of the assay
Vero E6 [15] = test: relative viability EC50 (midpoint between 100% and the lowest measured viability); higher = less toxic

Row | SMILES | cell viability (Caco-2 [1]; 1 nM) [%] | cell viability (Caco-2 [1]; 10 nM) [%] | cell viability (Caco-2 [1]; 100 nM) [%] | cell viability (Caco-2 [1]; 1000 nM) [%] | cell viability (Caco-2 [1]; 10000 nM) [%] | cell viability (Calu-3 [2]; 1 nM) [%] | cell viability (Calu-3 [2]; 10 nM) [%] | cell viability (Calu-3 [2]; 100 nM) [%] | cell viability (Calu-3 [2]; 1000 nM) [%] | cell viability (Calu-3 [2]; 10000 nM) [%] | cell viability (HepG2 [3]; 1 nM) [%] | cell viability (HepG2 [3]; 10 nM) [%] | cell viability (HepG2 [3]; 100 nM) [%] | cell viability (HepG2 [3]; 1000 nM) [%] | cell viability (HepG2 [3]; 10000 nM) [%] | cell viability (U2OS [4]; 1 nM) [%] | cell viability (U2OS [4]; 10 nM) [%] | cell viability (U2OS [4]; 100 nM) [%] | cell viability (U2OS [4]; 1000 nM) [%] | cell viability (U2OS [4]; 10000 nM) [%] | relative viability EC50 (Caco-2 [5]) [µM] | relative viability EC50 (Calu-3 [6]) [µM] | relative viability EC50 (HepG2 [7]) [µM] | relative viability EC50 (U2OS [8]) [µM] | drug sensitivity score (Caco-2 [9]) | drug sensitivity score (Calu-3 [10]) | drug sensitivity score (HepG2 [11]) | drug sensitivity score (U2OS [12]) | cell viability (Vero E6 [13]; 1 nM) [%] | cell viability (Vero E6 [13]; 10 nM) [%] | cell viability (Vero E6 [13]; 100 nM) [%] | cell viability (Vero E6 [13]; 1000 nM) [%] | cell viability (Vero E6 [13]; 10000 nM) [%] | drug sensitivity score (Vero E6 [14]) | relative viability EC50 (Vero E6 [15]) [µM]
1 | O=C(C(c1ccccc1)c1ccccc1)N1CCN(CC(O)COc2cccc3ncccc23)CC1 (stereo unspecified) [dofequidar] | 102 | 99.9 | 94.7 | 103 | 86.3 | 90.5 | 97.8 | 109 | 129 | 104 | 95.7 | 104 | 105 | 105 | 102 | 97.4 | 102 | 94.2 | 102 | 93.8 | > 10 | > 10 | > 10 | > 10 | 0.1 | 0 | 0 | 0 |  |  |  |  |  |  | 
2 | CCOC(CN1CCN(CC(C)C(=O)c2ccccc2)CC1)c1ccccc1 (stereo unspecified) [eprazinone] | 102 | 98.9 | 110 | 95.4 | 98.2 | 96 | 96.9 | 95.6 | 93 | 90.8 | 111 | 96.7 | 102 | 98.9 | 99.6 | 98.8 | 95.8 | 95.8 | 95.2 | 98.7 | > 10 | > 10 | > 10 | > 10 | 0 | 0 | 0 | 0 |  |  |  |  |  |  | 
3 | O=C(/C=C/c1c(C(=O)O)[nH]c2cc(Cl)cc(Cl)c12)Nc1ccccc1 [gavestinel] | 102 | 104 | 91 | 99.6 | 104 | 90.4 | 98.8 | 89.3 | 99.2 | 107 | 94.5 | 112 | 92.9 | 105 | 101 | 101 | 99.2 | 100 | 101 | 100 | > 10 | > 10 | > 10 | > 10 | 0 | 0 | 0 | 0 |  |  |  |  |  |  | 
4 | COC1=C2C[C@@H](C)C[C@H](OC)[C@H](O)[C@@H](C)/C=C(\C)[C@H](OC(N)=O)[C@@H](OC)/C=C\C=C(/C)C(=O)NC(=CC1=O)C2=O [geldanamycin] | 106 | 95.9 | 95.1 | 56.9 | 29.2 | 99 | 107 | 103 | 68 | 35.4 | 101 | 105 | 106 | 1.2 | 1 | 100 | 101 | 93.6 | 24.2 | 3 | 0.716 | 1.01 | 0.35 | 0.474 | 9.2 | 7.6 | 17.3 | 15 | 97.1 | 102 | 98 | 98.1 | 65.9 | 1.8 | 
5 | C=C1c2cccc(O)c2C(=O)C2=C(O)[C@]3(O)C(=O)C(C(N)=O)=C(O)[C@@H](N(C)C)[C@@H]3[C@@H](O)[C@H]12 [methacycline] | 98.1 | 95.7 | 99.7 | 93.5 | 95.4 | 99.3 | 89.1 | 100 | 83 | 90.7 | 104 | 99.9 | 97.9 | 96.9 | 89.9 | 101 | 96.9 | 104 | 99.9 | 103 | > 10 | > 10 | > 10 | > 10 | 0 | 0.3 | 0 | 0 | 70.6 | 105 | 71.4 | 97.6 | 63.2 | 5.8 | 
6 | O=C(O)C[CH2][Ge](=[O])[O][Ge](=[O])[CH2]CC(=O)O [propagermanium] | 108 | 91.4 | 106 | 93.4 | 100 | 102 | 105 | 95.6 | 99.2 | 105 | 104 | 106 | 95.3 | 96.8 | 88 | 101 | 101 | 99.1 | 97.1 | 97.5 | > 10 | > 10 | > 10 | > 10 | 0 | 0 | 0 | 0 |  |  |  |  |  |  | 
7 | O=c1ccc2cc3ccoc3cc2o1 [psoralen] | 96.6 | 104 | 101 | 104 | 97.9 |  |  |  |  |  | 110 | 107 | 110 | 96.5 | 105 | 101 | 104 | 97.8 | 102 | 98.9 | > 10 |  | > 10 | > 10 | 0 |  | 0 | 0 |  |  |  |  |  |  | 
8 | c1nc2c(NC3CCCCC3)nc(Nc3ccc(N4CCOCC4)cc3)nc2[nH]1 [reversine] | 99.3 | 93.6 | 97.8 | 84.1 | 35.2 | 102 | 92.4 | 103 | 100 | 73.4 | 101 | 89.9 | 89.2 | 46.3 | 27.6 | 99.9 | 102 | 99.4 | 63.6 | 23.1 | 1.57 |  | 0.401 | 1.04 | 6 | 1 | 11.5 | 8.9 | 104 | 98.1 | 103 | 65.1 | 58 | 6.3 | 
9 | COc1cnc(NS(=O)(=O)c2ccc(N)cc2)nc1 [sulfameter] | 106 | 103 | 92.7 | 103 | 98.8 | 97.2 | 96.4 | 99.3 | 101 | 105 | 102 | 110 | 97 | 99.6 | 106 | 96.2 | 101 | 94.3 | 101 | 97.2 | > 10 | > 10 | > 10 | > 10 | 0 | 0 | 0 | 0 |  |  |  |  |  |  | 
10 | CCCSc1nc(N[C@@H]2C[C@H]2c2ccc(F)c(F)c2)c2nnn([C@@H]3C[C@H](OCCO)[C@@H](O)[C@H]3O)c2n1 [ticagrelor] | 98.1 | 99.5 | 98 | 97.1 | 86.5 | 99.9 | 99.6 | 101 | 103 | 104 | 107 | 112 | 95.9 | 99.1 | 89.5 | 104 | 96.3 | 101 | 103 | 96.3 | > 10 | > 10 | > 10 | > 10 | 0.3 | 0 | 0 | 0 |  |  |  |  |  |  | 
11 | CC(C)C[C@@H](C(=O)N[C@H](C(=O)OC1CCCC1)c1ccccc1)[C@H](O)C(=O)NO [tosedostat] | 90 | 105 | 93.6 | 88.6 | 84.1 | 96.2 | 101 | 74.6 | 69.7 | 59.8 | 105 | 87.8 | 88.5 | 80.1 | 66.7 | 97.7 | 103 | 96.3 | 98.3 | 70.9 | > 10 |  |  |  | 1.1 | 8.9 | 4.6 | 1.5 | 99.7 | 99.1 | 104 | 102 | 106 | 0 | > 10
12 | Nc1nc(N)c2nc(-c3ccccc3)c(N)nc2n1 [triamterene] | 104 | 120 | 97.8 | 106 | 98.8 | 103 | 101 | 93.6 | 97.9 | 102 | 97.9 | 83.3 | 85.9 | 88.7 | 88.1 | 102 | 101 | 106 | 108 | 97.8 | > 10 | > 10 | > 10 | > 10 | 0 | 0 | 5.2 | 0 | 97.9 | 98.2 | 101 | 98.6 | 70.4 | 1.5 | 
